Values after ≈ are worked out from the molar mass of the structure shown.
Experiments:
[1] = system: Trichophyton mentagrophytes SM-110; test: Antifungal activity evaluation test: minimum inhibitory concentration (MIC), broth dilution by reference to CLSI M38-A2; assay type: cell-based; settings: SM110, read-out: MIC (T. menta.)
Method: (§1) The minimum inhibitory concentration (MIC) for Trichophyton mentagrophytes and Trichophyton rubrum was measured by the following procedure by reference to Clinical and Laboratory standards Institute (CLSI) guidelines M38-A2. Reference document for the measurement method: National Committee for a Clinical Laboratory Standards. Reference method for broth dilution antifungal susceptibility testing of filamentous fungi. Approved standard Second edition M38-A2. Wayne, Pa.: National Committee for a Clinical Laboratory Standards, 2008. • Test compound solution: A test compound was dissolved in dimethyl sulfoxide (DMSO) at a concentration of 2.5 mg/mL to give a stock solution. The stock solution was appropriately diluted with DMSO to prepare a 2-fold dilution series. As control compounds, terbinafine and amorolfine were used. • Test strains: Trichophyton mentagrophytes SM-110 and Trichophyton rubrum KD-1130 were used. • Preparation of fungal culture to be inoculated: The above-mentioned test strain was suspended in 0.05% Tween 80-containing saline, and the fungi of the genus Trichophyton were prepared to a fungal concentration of 1×10^6 cells/mL by using a hemocytometer. Then, using MOPS-buffered RPMI 1640 medium (pH 7.0) as a test medium, a fungal culture of the fungi of the genus Trichophyton was diluted 250-fold (4×10^3 cells/mL) to give a fungal culture for inoculation. • MIC measurement of genus Trichophyton fungi: MOPS-buffered RPMI 1640 medium (pH 7.0) was dispensed by 100 μL to given wells of a 96 well U-bottom microplate. Then, the test compound solution (2 μL) was added, the mixture was sufficiently stirred by a plate mixer. The fungal culture (100 μL) was inoculated and the mixture was cultured at 35° C. for 4 days (final fungal concentration: 2×10^3 cells/mL). After the culture, the minimum drug concentration of a well in which a growth inhibitory action of not less than 80% was visually observed as compared to a growth control was taken as a minimum inhibitory concentration (MIC: μg/mL).
(§2) The abbreviations in the Tables mean the following fungi and compounds. • T. menta.: Trichophyton mentagrophytes • T. rubrum: Trichophyton rubrum • TBF: terbinafine • AMF: amorolfine

[2] = system: Trichophyton rubrum KD-1130; test: as above; assay type: cell-based; settings: KD1130, read-out: MIC (T. rubrum)
Method: as §1, §2

Compound	MIC [1] [µg/mL]	MIC [2] [µg/mL]
COc1ccncc1-c1cccnc1Oc1ccc(Cl)cc1 [I-235, 2-(4-chlorophenoxy)-4′-methoxy-3,3′-bipyridine]	0.2 to 0.78 (≈ 0.639 to 2.49 µM)	0.2 to 0.78 (≈ 0.639 to 2.49 µM)
FC1(F)Oc2cccc(-c3cccnc3Oc3ccc(C(F)(F)F)nc3)c2O1 [I-39, 3-(2,2-difluorobenzo[1,3]dioxol-4-yl)-2-{[6-(trifluoromethyl)pyridin-3-yl]oxy}pyridine]	≤ 0.1	0.2 to 0.78 (≈ 0.505 to 1.97 µM)
COc1ccncc1-c1cccnc1Oc1ccc(S(F)(F)(F)(F)F)cc1 [I-240, 4′-methoxy-2-[4-(pentafluorosulfanyl)phenoxy]-3,3′-bipyridine]	≤ 0.1	≤ 0.1
COCCOCC(F)(F)c1ccc(Oc2ncccc2-c2ccc(F)cc2OC)cn1 [I-159, 2-({6-[1,1-difluoro-2-(2-methoxyethoxy)ethyl]pyridin-3-yl}oxy)-3-(4-fluoro-2-methoxyphenyl)pyridine]	≤ 0.1	0.2 to 0.78 (≈ 0.46 to 1.8 µM)
Cc1cnccc1-c1cccnc1Oc1ccc(C(F)(F)F)cc1 [I-205]	≤ 0.1	≤ 0.1
COCc1ccccc1-c1cccnc1Oc1ccc(C(F)(F)F)nc1 [I-60]	0.2 to 0.78 (≈ 0.555 to 2.16 µM)	0.2 to 0.78 (≈ 0.555 to 2.16 µM)
Cc1ccncc1-c1cccnc1Oc1ccc(-c2ccncc2)cc1 [I-430]	≤ 0.1	≤ 0.1
FC(F)(F)c1ccc(Oc2ncccc2-c2cncc3cccnc23)cc1 [I-225, 8-{2-[4-(trifluoromethyl)phenoxy]pyridin-3-yl}-1,6-naphthyridine]	≤ 0.1	≤ 0.1
CCc1cc(Oc2ncccc2-c2cnccc2OC)ccc1C(F)F [I-296, 2-[4-(difluoromethyl)-3-ethylphenoxy]-4′-methoxy-3,3′-bipyridine]	≤ 0.1	≤ 0.1
COc1ccncc1-c1cccnc1Oc1ccc(C#N)cc1 [I-243, 4-{[4′-methoxy-(3,3′-bipyridin)-2-yl]oxy}benzonitrile]	0.2 to 0.78 (≈ 0.659 to 2.57 µM)	0.2 to 0.78 (≈ 0.659 to 2.57 µM)
CCC(=O)OCCc1ccc(Oc2ncccc2-c2cnccc2OC)cc1 [I-278, 4-{[4′-methoxy-3,3′-bipyridin)-2-yl]oxy}phenethyl propionate]	0.2 to 0.78 (≈ 0.529 to 2.06 µM)	0.2 to 0.78 (≈ 0.529 to 2.06 µM)
COc1c(Cl)cncc1-c1cccnc1Oc1ccc(C(C)(F)F)nc1 [I-100, 5′-chloro-2-{[6-(1,1-difluoroethyl)pyridin-3-yl]oxy}-4′-methoxy-3,3′-bipyridine]	≤ 0.1	≤ 0.1
Cc1c(F)cncc1-c1cccnc1Oc1ccc(C(C)(F)F)nc1 [I-99, 2-{[6-(1,1-difluoroethyl)pyridin-3-yl]oxy}-5′-fluoro-4′-methyl-3,3′-bipyridine]	0.2 to 0.78 (≈ 0.579 to 2.26 µM)	0.2 to 0.78 (≈ 0.579 to 2.26 µM)
COc1ccncc1-c1cccnc1Oc1ccc(C(C)C)cc1 [I-255, 2-(4-isopropylphenoxy)-4′-methoxy-3,3′-bipyridine]	≤ 0.1	≤ 0.1
COc1cc(F)ccc1-c1cccnc1Oc1ccc(C(F)F)nc1 [I-73, 2-{[6-(difluoromethyl)pyridin-3-yl]oxy}-3-(4-fluoro-2-methoxyphenyl)pyridine]	≤ 0.1	≤ 0.1
COC(=O)CCc1ccc(Oc2ncccc2-c2cccnc2OC)cc1 [I-409]	≤ 0.1	≤ 0.1
Cc1cnn2c(-c3cccnc3Oc3ccc(C(F)(F)F)nc3)cccc12 [I-53, 3-methyl-7-(2-{[6-(trifluoromethyl)pyridin-3-yl]oxy}pyridin-3-yl)-pyrazolo[1,5-a]pyridine]	0.2 to 0.78 (≈ 0.54 to 2.11 µM)	≤ 0.1
COc1ccncc1-c1cccnc1Oc1ccc(C(C)(F)F)c(F)c1 [I-304]	≤ 0.1	≤ 0.1
COc1cnccc1-c1cccnc1Oc1ccc(C(C)(F)F)nc1 [I-89, 2-{[6-(1,1-difluoroethyl)pyridin-3-yl]oxy}-3′-methoxy-3,4′-bipyridine]	0.2 to 0.78 (≈ 0.583 to 2.27 µM)	0.2 to 0.78 (≈ 0.583 to 2.27 µM)
COc1ccccc1-c1cccnc1Nc1ccc(C(F)(F)F)nc1 [I-313]	≤ 0.1	≤ 0.1
CCc1ccc(Oc2ncccc2-c2cncc(C=O)c2OC)cc1 [I-287, 2′-(4-ethylphenoxy)-4-methoxy-(3,3′-bipyridine)-5-carbaldehyde]	0.2 to 0.78 (≈ 0.598 to 2.33 µM)	0.2 to 0.78 (≈ 0.598 to 2.33 µM)

Other lines, results leading:

MIC [1] [µg/mL]	MIC [2] [µg/mL]	Compound
≤ 0.1	≤ 0.1	COc1ccccc1-c1cncnc1Oc1ccc(C(F)(F)F)nc1 [I-310, 5-(2-methoxyphenyl)-4-{[6-(trifluoromethyl)pyridin-3-yl]oxy}pyrimidine]
≤ 0.1	≤ 0.1	COc1ncccc1-c1cccnc1Oc1cnc2c(c1)CCCC2 [I-135, 3-{[2′-methoxy-(3,3′-bipyridin)-2-yl]oxy}-5,6,7,8-tetrahydroquinoline]
1.56 to 6.25 (≈ 4.34 to 17.4 µM)	1.56 to 6.25 (≈ 4.34 to 17.4 µM)	COc1ncccc1-c1cccnc1Oc1ccc(C(F)(F)CO)nc1 [I-347]
≤ 0.1	≤ 0.1	COc1ccncc1-c1nccnc1Oc1ccc2c(c1)CCCC2 [I-317, 2-(4-methoxypyridin-3-yl)-3-[(5,6,7,8-tetrahydronaphthalen-2-yl)oxy]pyrazine]
1.56 to 6.25 (≈ 4.2 to 16.8 µM)	0.2 to 0.78 (≈ 0.539 to 2.1 µM)	Cc1cc(-c2cccnc2Oc2ccc(C(F)(F)F)nc2)n2nccc2n1 [I-48, 5-methyl-7-(2-{[6-(trifluoromethyl)pyridin-3-yl]oxy}pyridin-3-yl)-pyrazolo[1,5-a]pyrimidine]
0.2 to 0.78 (≈ 0.576 to 2.25 µM)	≤ 0.1	Cc1nn(C)c(C)c1-c1cccnc1Oc1ccc(C(F)(F)F)cc1 [I-341, 2-[4-(trifluoromethyl)phenoxy]-3-(1,3,5-trimethyl-1H-pyrazol-4-yl)pyridine]
1.56 to 6.25 (≈ 4.37 to 17.5 µM)	0.2 to 0.78 (≈ 0.56 to 2.18 µM)	FC(F)(F)c1ccc(Oc2ncccc2-c2cccc3ncnn23)cn1 [I-45, 5-(2-{[6-(trifluoromethyl)pyridin-3-yl]oxy}pyridin-3-yl)-[1,2,4]triazolo[1,5-a]pryidine]
≤ 0.1	≤ 0.1	COc1ncc(F)cc1-c1cccnc1Oc1ccc(C(F)(F)F)cc1 [I-209, 5-fluoro-2-methoxy-2′-[4-(trifluoromethyl)phenoxy]-3,3′-bipyridine]
≤ 0.1	≤ 0.1	COc1ccccc1-c1cccnc1Oc1ccc(C(F)F)c(C)c1 [I-455]
≤ 0.1	≤ 0.1	Fc1ccc(F)c(-c2cccnc2Oc2ccc(C(F)(F)F)nc2)c1 [I-7, 3-(2,5-difluorophenyl)-2-{[6-(trifluoromethyl)pyridin-3-yl]oxy}pyridine]
0.2 to 0.78 (≈ 0.582 to 2.27 µM)	0.2 to 0.78 (≈ 0.582 to 2.27 µM)	COc1ccccc1-c1cccnc1Cc1ccc(C(F)(F)F)cc1 [I-439, 3-(2-methoxyphenyl)-2-[4-(trifluoromethyl)benzyl]pyridine]
1.56 to 6.25 (≈ 4.74 to 19 µM)	1.56 to 6.25 (≈ 4.74 to 19 µM)	CCc1ccc(Oc2ncccc2-c2cc3nccn3cc2C)cc1 [I-293, 7-[2-(4-ethylphenoxy)pyridin-3-yl]-6-methylimidazo[1,2-a]pyridine]
≤ 0.1	≤ 0.1	FC(F)(F)c1ccc(Oc2ncccc2-c2cccc3c2OCC3)cn1 [I-35, 3-(2,3-dihydrobenzofuran-7-yl)-2-{[6-(trifluoromethyl)pyridin-3-yl]oxy}pyridine]
≤ 0.1	≤ 0.1	Cc1cc(Oc2ncccc2-c2cccc3c2OCC3)cnc1C(F)(F)F [I-448]
1.56 to 6.25 (≈ 5.34 to 21.4 µM)	1.56 to 6.25 (≈ 5.34 to 21.4 µM)	COc1ccccc1-c1cccnc1Oc1ccc(C)nc1 [I-68]
≤ 0.1	≤ 0.1	FC(F)(F)c1ccc(Oc2ncccc2-c2cccc3cccnc23)cn1 [I-34, 8-(2-{[6-(trifluoromethyl)pyridin-3-yl]oxy}pyridin-3-yl)quinoline]
≤ 0.1	≤ 0.1	COc1cc(-c2cccnc2Oc2ccc(C(F)F)nc2)c(F)cc1F [I-77, 3-(2,4-difluoro-5-methoxyphenyl)-2-{[6-(difluoromethyl)pyridin-3-yl]oxy}pyridine]
0.2 to 0.78 (≈ 0.555 to 2.16 µM)	0.2 to 0.78 (≈ 0.555 to 2.16 µM)	CCOc1ccccc1-c1cccnc1Oc1ccc(C(F)(F)F)nc1 [I-17, 3-(2-ethoxyphenyl)-2-{[6-(trifluoromethyl)pyridin-3-yl]oxy}pyridine]
≤ 0.1	≤ 0.1	c1cnc(Oc2cnc3c(c2)CCC3)c(-c2cccc3c2OCC3)c1 [I-138, 3-{[3-(2,3-dihydrobenzofuran-7-yl)pyridin-2-yl]oxy}-6,7-dihydro-5H-cyclopenta[b]pyridine]
1.56 to 6.25 (≈ 4.84 to 19.4 µM)	1.56 to 6.25 (≈ 4.84 to 19.4 µM)	COCc1ccc(Oc2ncccc2-c2cnccc2OC)cc1 [I-251, 4′-methoxy-2-[4-(methoxymethyl)phenoxy]-3,3′-bipyridine]
0.2 to 0.78 (≈ 0.657 to 2.56 µM)	0.2 to 0.78 (≈ 0.657 to 2.56 µM)	CC(=O)c1ccc(Oc2ncccc2-c2cnccc2C)cc1 [I-422]
≤ 0.1	≤ 0.1	COc1ccccc1-c1cccnc1Oc1ccc2c(c1)CCC2 [I-345, 2-[(2,3-dihydro-1H-inden-5-yl)oxy]-3-(2-methoxyphenyl)pyridine]

Source: US10647675B2 (priority 2015, dated 2020)
